Melting point data for 3 compounds are collected here from patent publication US6906083B2 (dated 2005).

Molecules are shown by their SMILES.

By melting point is commonly meant the temperature of the solid-liquid transition. As for `COc1cc2c(cc1OC)C(=O)C(F)(CC1CCN(C)CC1)C2.Cl` (stereo not drawn), the melting point is 215 to 220 °C (dec.).

Consider `COc1cc2c(cc1OC)C(=O)C(F)(CC1CCN(CC(C)C)CC1)C2.Cl` (stereo not drawn), for which the melting point was 220 to 225 °C (dec.).

`COc1cc2c(cc1OC)C(=O)C(F)(CC1CCNCC1)C2.Cl` (stereo not drawn): the melting point was > 240 °C (dec.).
